e = 2'-O-(2-methoxyethyl) (MOE); d = 2'-deoxy (DNA)
Key:
EGF-EGFR signaling = assay: EGFR signaling western blot (p-EGFR, p-ERK), A431 cells; assay type: cell-based; details: 2 μM for 16 hours
Method: In order to test the effects of a PS-ASO on EGFR signaling, A431 cells were incubated with compound no. 116847 or no PS-ASO compound for 16 hours. All cells were then treated with EGF prior to being subjected to the pulse-chase protocol described above. Cell lysates were run on a SDS-PAGE gel and analyzed by sequential western blot for phosphorylated EGFR (P-EGFR), total EGFR (T-EGFR), phosphorylated ERK (P-ERK), and total ERK (T-ERK) using the antibodies described above for EGFR, 4370 for P-ERK (Cell Signaling Technology), and 4695 for T-ERK (Cell Signaling Technology).
110080, 25690, 25699, 395251, or 395254 at 2 μM for 16 hours prior to carrying out the pulse-chase experiment described above.

Malat1 RNA = assay: Antisense activity by RT-qPCR, Malat1, A431 cells; assay type: cell-based
Method: A431 cells were grown at 10,000 cells per well and pre-treated with a variety of growth factors to determine if the addition of exogenous growth factors affects antisense activity or uptake of modified antisense oligonucleotides in a cell. The growth factors used were EGF, insulin growth factor (IGF), transforming growth factor (TGF), […] (VEGF), hepatocyte growth factor (HGF), platelet growth factor (PGF) and fibroblasts growth factor (FGF). To test antisense activity, cells were treated for 4 hours with a growth factor or vehicle alone, and then treated with compound no. 25690 (complementary to Drosha), compound no. 395254 (complementary to Malat1), or vehicle alone. RNA was isolated from the cells and Drosha or Malat1 RNA levels were measured by RT-qPCR. Human primer probe set 13816 (forward sequence […], designated herein as SEQ ID NO: 3; reverse sequence […], designated herein as SEQ ID NO: 4; probe sequence […], designated herein as SEQ ID NO: 5) was used to measure Drosha mRNA levels and primer probe set RTS2736 (forward sequence […], designated herein as SEQ ID NO: 6; reverse sequence […], designated herein as SEQ ID NO: 7; probe sequence TGCCACATCGCCACCCCGT, designated herein as SEQ ID NO: 8) was used to measure Malat1 RNA levels. Drosha and Malat1 RNA levels were normalized to total RNA content, as measured by RIBOGREEN®. Results are presented in the tables below as normalized RNA levels, relative to untreated control cells.
A431 cells were treated with EGF or TGF at 200 ng/mL in the presence or absence of 1 μM of the EGFR tyrosine kinase inhibitor PD174265. The cells were then treated with compound no. 25690 or compound no. 395254 as in Example 8. Total RNA was isolated and analyzed by RT-qPCR, as in Example 8.
Following siRNA treatment, cells were treated with compound no. 25690 or compound no. 395254 in the presence or absence of EGF. 16 hours after treatment with a PS-ASO with or without EGF, cells were harvested, and RNA levels were analyzed via RT-qPCR as in Example 8.

GGCATATGCAGATAATGTTC (sugars from the 5' end e5 d10 e5, all phosphorothioate, methylation of C not given here) [compound 395254]
EGFR signaling (EGF-EGFR signaling): not be impacted
Malat1 RNA (% Control) (Malat1 RNA; 2.0 nM, Control): 100.0 % Control
Malat1 RNA (% Control) (Malat1 RNA; 2.0 nM, Control Luciferase siRNA): 100.0 % Control
Malat1 RNA (% Control) (Malat1 RNA; 2.0 nM, Control Luciferase siRNA, Table 27): 100 % Control
Malat1 RNA (% Control) (Malat1 RNA; 2.0 nM, Control luciferase + EGF): 100 % Control
Malat1 RNA (% Control) (Malat1 RNA; 2.0 nM, Control, Table 21): 100.0 % Control
Malat1 RNA (% Control) (Malat1 RNA; 2.0 nM, EGF): 100.0 % Control
Malat1 RNA (% Control) (Malat1 RNA; 2.0 nM, EGFR siRNA-1): 100.0 % Control
Malat1 RNA (% Control) (Malat1 RNA; 2.0 nM, EGFR siRNA-2): 100.0 % Control
Malat1 RNA (% Control) (Malat1 RNA; 2.0 nM, EGFR siRNA-2 + EGF): 100 % Control
Malat1 RNA (% Control) (Malat1 RNA; 2.0 nM, EGFR siRNA-2, Table 27): 100 % Control
Malat1 RNA (% Control) (Malat1 RNA; 2.0 nM, TGF): 100.0 % Control
Malat1 RNA (% Control) (Malat1 RNA; 2.0 nM, TGF+PD174265): 100.0 % Control
Malat1 RNA (% Control) (Malat1 RNA; 2.0 nM, TGF, Table 21): 100.0 % Control
Malat1 RNA (% Control) (Malat1 RNA; 3.9 nM, Control): 109.0 % Control
Malat1 RNA (% Control) (Malat1 RNA; 3.9 nM, Control Luciferase siRNA): 72.7 % Control
Malat1 RNA (% Control) (Malat1 RNA; 3.9 nM, Control Luciferase siRNA, Table 27): 110.2 % Control
Malat1 RNA (% Control) (Malat1 RNA; 3.9 nM, Control luciferase + EGF): 108.2 % Control
Malat1 RNA (% Control) (Malat1 RNA; 3.9 nM, Control, Table 21): 110.2 % Control
Malat1 RNA (% Control) (Malat1 RNA; 3.9 nM, EGF): 76.0 % Control
Malat1 RNA (% Control) (Malat1 RNA; 3.9 nM, EGFR siRNA-1): 108.4 % Control
Malat1 RNA (% Control) (Malat1 RNA; 3.9 nM, EGFR siRNA-2): 90.4 % Control
Malat1 RNA (% Control) (Malat1 RNA; 3.9 nM, EGFR siRNA-2 + EGF): 108.2 % Control
Malat1 RNA (% Control) (Malat1 RNA; 3.9 nM, EGFR siRNA-2, Table 27): 105.2 % Control
Malat1 RNA (% Control) (Malat1 RNA; 3.9 nM, TGF): 99.9 % Control
Malat1 RNA (% Control) (Malat1 RNA; 3.9 nM, TGF+PD174265): 108.2 % Control
Malat1 RNA (% Control) (Malat1 RNA; 3.9 nM, TGF, Table 21): 105.2 % Control
Malat1 RNA (% Control) (Malat1 RNA; 7.8 nM, Control): 127.0 % Control
Malat1 RNA (% Control) (Malat1 RNA; 7.8 nM, Control Luciferase siRNA): 81.9 % Control
Malat1 RNA (% Control) (Malat1 RNA; 7.8 nM, Control Luciferase siRNA, Table 27): 99.3 % Control
Malat1 RNA (% Control) (Malat1 RNA; 7.8 nM, Control luciferase + EGF): 91.2 % Control
Malat1 RNA (% Control) (Malat1 RNA; 7.8 nM, Control, Table 21): 99.3 % Control
Malat1 RNA (% Control) (Malat1 RNA; 7.8 nM, EGF): 98.1 % Control
Malat1 RNA (% Control) (Malat1 RNA; 7.8 nM, EGFR siRNA-1): 103.1 % Control
Malat1 RNA (% Control) (Malat1 RNA; 7.8 nM, EGFR siRNA-2): 85.1 % Control
Malat1 RNA (% Control) (Malat1 RNA; 7.8 nM, EGFR siRNA-2 + EGF): 99.2 % Control
Malat1 RNA (% Control) (Malat1 RNA; 7.8 nM, EGFR siRNA-2, Table 27): 105.2 % Control
Malat1 RNA (% Control) (Malat1 RNA; 7.8 nM, TGF): 101.8 % Control
Malat1 RNA (% Control) (Malat1 RNA; 7.8 nM, TGF+PD174265): 91.2 % Control
Malat1 RNA (% Control) (Malat1 RNA; 7.8 nM, TGF, Table 21): 105.2 % Control
Malat1 RNA (% Control) (Malat1 RNA; 15.6 nM, Control): 125.6 % Control
Malat1 RNA (% Control) (Malat1 RNA; 15.6 nM, Control Luciferase siRNA): 61.0 % Control
Malat1 RNA (% Control) (Malat1 RNA; 15.6 nM, Control Luciferase siRNA, Table 27): 87.2 % Control
Malat1 RNA (% Control) (Malat1 RNA; 15.6 nM, Control luciferase + EGF): 67.2 % Control
Malat1 RNA (% Control) (Malat1 RNA; 15.6 nM, Control, Table 21): 77.2 % Control
Malat1 RNA (% Control) (Malat1 RNA; 15.6 nM, EGF): 96.4 % Control
Malat1 RNA (% Control) (Malat1 RNA; 15.6 nM, EGFR siRNA-1): 98.4 % Control
Malat1 RNA (% Control) (Malat1 RNA; 15.6 nM, EGFR siRNA-2): 82.5 % Control
Malat1 RNA (% Control) (Malat1 RNA; 15.6 nM, EGFR siRNA-2 + EGF): 99.2 % Control
Malat1 RNA (% Control) (Malat1 RNA; 15.6 nM, EGFR siRNA-2, Table 27): 97.2 % Control
Malat1 RNA (% Control) (Malat1 RNA; 15.6 nM, TGF): 93.2 % Control
Malat1 RNA (% Control) (Malat1 RNA; 15.6 nM, TGF+PD174265): 77.2 % Control
Malat1 RNA (% Control) (Malat1 RNA; 15.6 nM, TGF, Table 21): 107.2 % Control
Malat1 RNA (% Control) (Malat1 RNA; 31.3 nM, Control): 120.2 % Control
Malat1 RNA (% Control) (Malat1 RNA; 31.3 nM, Control Luciferase siRNA): 47.0 % Control
Malat1 RNA (% Control) (Malat1 RNA; 31.3 nM, Control Luciferase siRNA, Table 27): 76.3 % Control
Malat1 RNA (% Control) (Malat1 RNA; 31.3 nM, Control luciferase + EGF): 58.7 % Control
Malat1 RNA (% Control) (Malat1 RNA; 31.3 nM, Control, Table 21): 66.3 % Control
Malat1 RNA (% Control) (Malat1 RNA; 31.3 nM, EGF): 111.9 % Control
Malat1 RNA (% Control) (Malat1 RNA; 31.3 nM, EGFR siRNA-1): 67.4 % Control
Malat1 RNA (% Control) (Malat1 RNA; 31.3 nM, EGFR siRNA-2): 57.7 % Control
Malat1 RNA (% Control) (Malat1 RNA; 31.3 nM, EGFR siRNA-2 + EGF): 114.0 % Control
Malat1 RNA (% Control) (Malat1 RNA; 31.3 nM, EGFR siRNA-2, Table 27): 95.9 % Control
Malat1 RNA (% Control) (Malat1 RNA; 31.3 nM, TGF): 109.8 % Control
Malat1 RNA (% Control) (Malat1 RNA; 31.3 nM, TGF+PD174265): 68.7 % Control
Malat1 RNA (% Control) (Malat1 RNA; 31.3 nM, TGF, Table 21): 55.9 % Control
Malat1 RNA (% Control) (Malat1 RNA; 62.5 nM, Control): 109.6 % Control
Malat1 RNA (% Control) (Malat1 RNA; 62.5 nM, Control Luciferase siRNA): 33.2 % Control
Malat1 RNA (% Control) (Malat1 RNA; 62.5 nM, Control Luciferase siRNA, Table 27): 67.2 % Control
Malat1 RNA (% Control) (Malat1 RNA; 62.5 nM, Control luciferase + EGF): 54.2 % Control
Malat1 RNA (% Control) (Malat1 RNA; 62.5 nM, Control, Table 21): 57.2 % Control
Malat1 RNA (% Control) (Malat1 RNA; 62.5 nM, EGF): 85.9 % Control
Malat1 RNA (% Control) (Malat1 RNA; 62.5 nM, EGFR siRNA-1): 45.0 % Control
Malat1 RNA (% Control) (Malat1 RNA; 62.5 nM, EGFR siRNA-2): 43.6 % Control
Malat1 RNA (% Control) (Malat1 RNA; 62.5 nM, EGFR siRNA-2 + EGF): 79.7 % Control
Malat1 RNA (% Control) (Malat1 RNA; 62.5 nM, EGFR siRNA-2, Table 27): 77.2 % Control
Malat1 RNA (% Control) (Malat1 RNA; 62.5 nM, TGF): 91.4 % Control
Malat1 RNA (% Control) (Malat1 RNA; 62.5 nM, TGF+PD174265): 54.2 % Control
Malat1 RNA (% Control) (Malat1 RNA; 62.5 nM, TGF, Table 21): 47.2 % Control
Malat1 RNA (% Control) (Malat1 RNA; 125 nM, Control): 131.6 % Control
Malat1 RNA (% Control) (Malat1 RNA; 125 nM, Control Luciferase siRNA): 18.9 % Control
Malat1 RNA (% Control) (Malat1 RNA; 125 nM, Control Luciferase siRNA, Table 27): 44 % Control
Malat1 RNA (% Control) (Malat1 RNA; 125 nM, Control luciferase + EGF): 37.0 % Control
Malat1 RNA (% Control) (Malat1 RNA; 125 nM, Control, Table 21): 44.0 % Control
Malat1 RNA (% Control) (Malat1 RNA; 125 nM, EGF): 62.3 % Control
